Like-named read-outs stand apart in the source and are kept apart here.
Assays:
Type in all cases: in vivo
Rotala indica (ROTIN) = assay: Weed spectrum in paddy field, ROTIN; details: 20 g/ha; applied 5 days after sowing; observed two weeks
Experimental: (§1) Suitable herbicidal compositions were prepared by mixing and dissolving 1 part by weight of the active compound with 5 parts by weight of acetone and 1 part by weight of alkylaryl polyglycolether as an emulsifier and then diluting with water to the predetermined concentration. Application was made by dropping the herbicide solutions onto the water surface of the pots.
(§2) Pots having a surface area of 500 cm^2 were filled with the soil in a muddy state as mentioned above. Seeds of annual weeds such as Monochoria vaginaiis (MOOVA), Lindernia procumbens (LIDPR), Rotala indica (ROTIN), Scirpus jumcoides (SCPJU), etc. were sown on the surface layer of soil, and then were planted tubers of perennial weeds such as Cyperus serotinus (CYPSE) and Sagittaria pygmaea (SAGPY) in a depth of 1 cm, and Eleocharis kuroguwai (ELOKU) and Sagittaria trifolia (SAGTR) in a depth of 4 cm. After 5 days, the chemicals were formulated as mentioned above and applied by dropping to the water surface of the pots.

[1] = system: Scirpus jumcoides (SCPJU); assay: Weed spectrum in paddy field, SCPJU; details: 20 g/ha; applied 5 days after sowing; observed two weeks
Experimental: as §1, §2

[2] = system: Sagittaria pygmaea (SAGPY); assay: Weed spectrum in paddy field, SAGPY; details: 20 g/ha; tubers planted 1 cm deep; applied after 5 days; observed two weeks
Experimental: as §1, §2

[3] = system: Sagittaria trifolia (SAGTR); assay: Weed spectrum in paddy field, SAGTR; details: 20 g/ha; tubers planted 4 cm deep; applied after 5 days; observed two weeks
Experimental: as §1, §2

[4] = system: Lindernia procumbens (LIDPR); assay: Weed spectrum in paddy field, LIDPR; details: 20 g/ha; applied 5 days after sowing; observed two weeks
Experimental: as §1, §2

[5] = system: Cyperus serotinus (CYPSE); assay: Weed spectrum in paddy field, CYPSE; details: 20 g/ha; tubers planted 1 cm deep; applied after 5 days; observed two weeks
Experimental: as §1, §2

Oryza sativa = assay: Phytotoxicity to rice (direct-seeded and transplanted) in paddy condition, greenhouse pot test; details: visual rating after two weeks; for Phytotoxicity, Oryza sativa, Seed: direct-seeded rice, treated 5 days after sowing; for Phytotoxicity, Oryza sativa, Transplanted: transplanted rice seedlings, treated 5 days after transplanting
Text: (§3) Pots having a surface area of 150 cm^2 were filled with a small amount of fertilizer and sterilized paddy field soil in a muddy state with a depth of 5 cm. Five (5) seeds of pre-germinated rice were directly sown on the soil surface and three (3) rice seedlings (2˜3 leaves) prepared in advance were transplanted in a depth of 2 cm in each pot. In another pot, seeds of barnyardgrass were sown and incorporated into the surface layer of soil. After sowing and transplanting of rice plant and sowing of barnyardgrass, the pots were flooded with water 3 cm deep and kept in a greenhouse. The rice plant was treated with the chemicals 5 days after sowing or transplanting, and barnyardgrass was treated with the chemicals at the pre-emergence (5 days after from sowing) and post-emergence stage (at the three-leaf stage, usually after 15 days from sowing).
as §1

Echinochloa crus-galli = assay: Herbicidal activity to barnyardgrass in paddy condition, pre- and post-emergence, greenhouse pot test; details: Echinochloa crus-galli, 336 h, visual rating after two weeks
Text: as §3, §1

[6] = system: Eleocharis kuroguwai (ELOKU); assay: Weed spectrum in paddy field, ELOKU; details: 20 g/ha; tubers planted 4 cm deep; applied after 5 days; observed two weeks
Experimental: as §1, §2

[7] = system: Monochoria vaginaiis (MOOVA); assay: Weed spectrum in paddy field, MOOVA; details: 20 g/ha; applied 5 days after sowing; observed two weeks
Experimental: as §1, §2

[8] = 80 g/ha, 0 = none, 100 = complete death
[9] = post-emergence, three-leaf stage, read-out: Herbicidal activity, Echinochloa crus-galli, Post-emergence (3-Leaf stage)
[10] = pre-emergence (5 days after sowing), read-out: Herbicidal activity, Echinochloa crus-galli, Pre-emergence
[11] = pre-emergence (5 days after sowing), 0 = no activity, 100 = complete death, read-out: Herbicidal activity, Echinochloa crus-galli, Pre-emergence

Compound | Weed spectrum, Annual weeds, ROTIN (Rotala indica (ROTIN)) | Weed spectrum, Annual weeds, SCPjU [1] | Weed spectrum, Perennial weeds, SAGPY [2] | Weed spectrum, Perennial weeds, SAGTR [3] | Weed spectrum, Annual weeds, LIDPR [4] | Weed spectrum, Perennial weeds, CYPSE [5] | Phytotoxicity, Oryza sativa, Seed (Oryza sativa; 10 g/ha) | Phytotoxicity, Oryza sativa, Transplanted (Oryza sativa; 10 g/ha) | Phytotoxicity, Oryza sativa, Seed (Oryza sativa; 20 g/ha) | Phytotoxicity, Oryza sativa, Transplanted (Oryza sativa; 20 g/ha) | Phytotoxicity, Oryza sativa, Seed (Oryza sativa; 40 g/ha) | Phytotoxicity, Oryza sativa, Transplanted (Oryza sativa; 40 g/ha) | Phytotoxicity, Oryza sativa, Seed (Oryza sativa; [8]) | Phytotoxicity, Oryza sativa, Transplanted (Oryza sativa; 80 g/ha) | pest or weed control at 5 g/ha (Echinochloa crus-galli; [9]) | pest or weed control at 5 g/ha (Echinochloa crus-galli; [10]) | pest or weed control at 10 g/ha (Echinochloa crus-galli; [9]) | pest or weed control at 10 g/ha (Echinochloa crus-galli; [10]) | pest or weed control at 20 g/ha (Echinochloa crus-galli; [9]) | pest or weed control at 20 g/ha (Echinochloa crus-galli; [10]) | other results
COCC(=O)O[C@H](c1ncccc1S(=O)(=O)NC(=O)Nc1nc(OC)cc(OC)n1)[C@H](C)F [Com. 2] | 100 | 100 | 95 | 90 | 100 | 100 | 0% | 0% | 0% | 0% | 20% | 10% | 30% | 10% | 50% | 60% | 90% | 100% | 100% | 100% | pest or weed control at 30 g/ha (Echinochloa crus-galli; [9]): 100%; pest or weed control at 30 g/ha (Echinochloa crus-galli; [11]): 100%; Weed spectrum, Perennial weeds, ELOKU [6]: 95; Weed spectrum, Annual weeds, MOOVA [7]: 100
COCCC(=O)O[C@H](c1ncccc1S(=O)(=O)NC(=O)Nc1nc(OC)cc(OC)n1)[C@H](C)F [Com. 4] | 100 | 100 | 90 | 85 | 100 | 100 | 0% | 0% | 0% | 0% | 20% | 10% | 30% | 20% | 60% | 60% | 90% | 95% | 100% | 100% | pest or weed control at 30 g/ha (Echinochloa crus-galli; [9]): 100%; pest or weed control at 30 g/ha (Echinochloa crus-galli; [11]): 100%; Weed spectrum, Perennial weeds, ELOKU [6]: 95; Weed spectrum, Annual weeds, MOOVA [7]: 100

— patent US6806229B1, “Herbicidally active pyridine sulfonyl urea derivatives” (LG Life Sciences, priority 2003, dated 2004)
